# Several values for one entry are separate records, joined by “and”; a condition that tells them apart may be missing. Identical values can stand only once.
# Test: Effect of different alkalinizing agents on the pH of an acidic solution
# Assay type: physicochemical
# Description: Various alkalinizing agents were added to a solution of 0.1 N HCl with a starting pH of 2.0 and the pH of the solution was tested at different time points.
structure (smiles),measurement,setting,value
O=C([O-])[O-].[Ca+2] [calcium carbonate],effect on the pH of the solution,"240 mg/320 ml (0.75 mg/ml), 60 minute timecourse",rapidly raised the pH of the solution to neutral or higher
same,effect on the pH of the solution,"120-140 mg/200 ml, 60 minute timecourse",raise the pH of the solution to near neutral or neutral
"Cl.N=C(N)NCCC[C@H](N)C(=O)O [Arginine HCl, L-arginine-HCl]",pH of 0.1N HCl solution (starting pH 2.0),"100 mg Arginine HCl in 200 ml, time: 10,20,30,40,50,60 min",2.20
O=C([O-])O.[Na+] [sodium bicarbonate],pH of 0.1N HCl solution (starting pH 2.0),"20 mg per 320 mL, time by row: r6-r16=0-10 min, r17-r21=20,30,40,50,60 min",2.05 and 2.02 and 2.04
same,effect on the pH of the solution,"20 mg/320 ml and 40 mg/320 ml, 60 minute timecourse",neither amount tested was sufficient to raise the pH to neutral or higher
same,pH of 0.1N HCl solution (starting pH 2.0),"40 mg per 320 mL, time by row: r6-r16=0-10 min, r17-r21=20,30,40,50,60 min",2.08 and 2.09 and 2.05
same,pH of 0.1N HCl solution (starting pH 2.0),"50 mg in 200 ml, time by row: r6-r10=0,10,20,30,40 min",1.72 and 1.71
same,pH of 0.1N HCl solution (starting pH 2.0),"100 mg in 200 ml, time by row: r6-r10=0,10,20,30,40 min",1.75 and 1.71 and 1.76
same,effect on the pH of the solution,"50 and 100 mg/200 ml, 40 minute timecourse",neither tested amount was sufficient to raise the pH
"O=C([O-])CC(O)(CC(=O)[O-])C(=O)[O-].[Na+].[Na+].[Na+] [Sodium Citrate, sodium citrate]",pH of 0.1N HCl solution (starting pH 2.0),"930 mg in 200 ml, time: 10,20,30,40,50,60 min",5.53
O=C([O-])[O-].[Na+].[Na+] [sodium carbonate],pH of 0.1N HCl solution (starting pH 2.0),"11.13 mg in 200 ml, time by row: r7-r12=0-5 min, r13-r16=10,15,20,60 min",2.80 and 2.66
same,pH of 0.1N HCl solution (starting pH 2.0),"30.11 mg in 200 ml, time by row: r7-r12=0-5 min, r13-r16=10,15,20,60 min",3.25 and 3.26 and 3.27 and 2.57 and 3.21 and 3.24
same,effect on the pH of the solution,"81.68 mg in 200 ml, 60 minute timecourse",raise the pH of the 200 ml solution to above neutral
[O]=[Mg] [magnesium oxide],effect on the pH of the solution,"160 mg/320 ml (0.5 mg/ml), 60 minute timecourse",rapidly raised the pH of the solution to neutral or higher
same,effect on the pH of the solution,"80-120 mg/200 ml powder and 80 mg granular form in 200 ml, 60 minute timecourse",rapidly raise the pH of the solution to neutral or higher
"CNC[C@H](O)[C@@H](O)[C@H](O)[C@H](O)CO [Meglumine, meglumine]",pH of 0.1N HCl solution (starting pH 2.0),"120 mg in 200 ml, time: 10,20,30,40,50,60 min",2.16
O=C([O-])[O-].[Mg+2] [magnesium carbonate],pH reached,"80 mg in 200 ml, 30 minute timecourse",above 9
same,pH of 0.1N HCl solution (starting pH 2.0),"100 mg Magnesium Carbonate in 200 ml, time: 10,20,30,40,50,60 min",3.05
"CC(=O)[O-].[Na+] [Sodium Acetate, sodium acetate]",pH of 0.1N HCl solution (starting pH 2.0),"200 mg in 200 ml, time: 10,20,30,40,50,60 min",4.96 and 5.08 and 5.21 and 5.34 and 4.73
[Mg+2].[OH-].[OH-] [magnesium hydroxide],pH of 0.1N HCl solution (starting pH 2.0),"60 mg in 200 ml, time by row: r6-r15=1-10 min, r16-r20=20,30,40,50,60 min",2.96 and 2.99 and 3.00 and 3.01 and 2.50 and 2.66 and 2.83 and 2.92
same,pH of 0.1N HCl solution (starting pH 2.0),"60 mg per 500 mL, time by row: r8-r18=0-10 min, r19-r23=20,30,40,50,60 min",2.12 and 2.17 and 2.18 and 2.19 and 2.01 and 2.06
same,effect on the pH of the solution,"71 mg/200 ml, 81 mg/200 ml and 100 mg/200 ml, 60 minute timecourse",raised the pH of the solution to neutral or higher
same,pH of 0.1N HCl solution (starting pH 2.0),"100 mg per 500 mL, time by row: r8-r18=0-10 min, r19-r23=20,30,40,50,60 min",2.21 and 2.33 and 2.38 and 2.40 and 2.41 and 2.03 and 2.10
same,effect on the pH of the solution,"100 mg/320 ml, 180 mg/500 ml, 120 mg/320 ml, 200 mg/500 ml and 240 mg/500 ml, 60 minute timecourse",rapidly raised the pH of the solution to neutral or higher
CCCCCCCCCCCCOS(=O)(=O)[O-].[Na+] [sodium lauryl sulfate],pH of 0.1N HCl solution (starting pH 2.0),"10 mg (10.22 mg actual) in 200 ml, time by row: r6-r16=0-10 min, r17=20, r18=30 min, sulfate",2.67 and 2.68
same,effect on the pH of the solution,"10 mg in 200 ml, 30 minute timecourse",insufficient to substantially raise the pH

# Reference: US20190388354A1, “IMPROVED COMPOSITIONS AND METHODS FOR REDUCING OVERDOSE” (priority 2017, published 2019)
